Assay results as given in article PMC6494879, “Drug resistance emergence in macaques administered cabotegravir long-acting for pre-exposure prophylaxis during acute SHIV infection” (Nature Communications, 2019).

Tests used:
[1] = tested on: SIV integrase I250V (SIV IN RTV pseudovirus); experiment: organism not typed; type: cell-based; details: for EC50: HEK293
[2] = tested on: SIV integrase E92G (SIV IN RTV pseudovirus)
[3] = tested on: SIV integrase G118R/A122T (SIV IN RTV pseudovirus); type: cell-based; details: G118R/A122T SIV integrase mutant
[4] = tested on: SIV integrase A122T (SIV IN RTV pseudovirus); experiment: organism not typed; type: cell-based; details: for EC50: HEK293
[5] = tested on: SIV integrase Q124R (SIV IN RTV pseudovirus); experiment: organism not typed; type: cell-based; details: for EC50: HEK293
[6] = tested on: SIV integrase WT (SIV IN RTV pseudovirus); experiment: organism not typed; type: cell-based; details: for EC50: HEK293; for fold-change relative to wild type integrase: WT SIV integrase
[7] = tested on: SIV integrase I72T (SIV IN RTV pseudovirus); experiment: organism not typed; type: cell-based; details: for EC50: HEK293
[8] = tested on: SIV integrase G118R (SIV IN RTV pseudovirus); type: cell-based; details: G118R SIV integrase mutant
[9] = tested on: SIV integrase E92Q (SIV IN RTV pseudovirus); type: cell-based; details: E92Q SIV integrase mutant
[10] = tested on: SIV integrase G140R (SIV IN RTV pseudovirus); experiment: organism not typed; type: cell-based; details: for EC50: HEK293
[11] = tested on: SIV integrase I110V (SIV IN RTV pseudovirus); experiment: organism not typed; type: cell-based; details: for EC50: HEK293
[12] = tested on: SIV integrase E92Q/G140R (SIV IN RTV pseudovirus); type: cell-based; details: E92Q/G140R SIV integrase mutant
[13] = tested on: HIV integrase G140S/A/C; details: cited from earlier work

| SMILES | EC50 [1] [nM] | fold-change relative to wild type integrase [1] [fold] | EC50 [2] [nM] | fold-change relative to wild type integrase [2] [fold] | fold-change relative to wild type integrase [3] | EC50 [4] [nM] | fold-change relative to wild type integrase [4] [fold] | EC50 [5] [nM] | fold-change relative to wild type integrase [5] [fold] | EC50 [6] [nM] | fold-change relative to wild type integrase [6] [fold] | EC50 [7] [nM] | fold-change relative to wild type integrase [7] [fold] | fold-change relative to wild type integrase [8] | fold-change relative to wild type integrase [9] [fold] | EC50 [10] [nM] | fold-change relative to wild type integrase [10] | EC50 [11] [nM] | fold-change relative to wild type integrase [11] [fold] | fold-change relative to wild type integrase [12] | further results |
| --- | --- | --- | --- | --- | --- | --- | --- | --- | --- | --- | --- | --- | --- | --- | --- | --- | --- | --- | --- | --- | --- |
| O=C(NCc1c(F)cc(F)cc1F)c1cn2c(c(O)c1=O)C(=O)N1[C@H]3CC[C@H](C3)O[C@@H]1C2 [BIC, bictegravir] | 1.56 | 1.6 | 4.29 | 4.3 | >1000 (>1000) fold | 2.1 | 2.1 | 1.49 | 1.5 | 1 | 1 | 1.51 | 1.5 | >1000 (>1000) fold | 2.0 | > 1000 | >1000 (>1000) fold | 1.78 | 1.8 | >1000 (>1000) fold |  |
| C[C@@H]1CCO[C@H]2Cn3cc(C(=O)NCc4ccc(F)cc4F)c(=O)c(O)c3C(=O)N12 [DTG, dolutegravir] | 0.92 | 0.9 | 2.78 | 2.8 | >1000 (>1000) fold | 1.42 | 1.4 | 1.62 | 1.6 | 1 | 1 | 1.14 | 1.1 | >1000 (>1000) fold | 1.5 | > 1000 | >1000 (>1000) fold | 1.52 | 1.5 | >1000 (>1000) fold | fold reduced susceptibility of HIV with G140S/A/C [13]: 10-100 fold |
| O=C1Nc2ccc(Cl)cc2[C@@](C#CC2CC2)(C(F)(F)F)O1 [EFV, efavirenz] | 0.67 | 1.0 | 1.01 | 1.5 | 1.1 fold | 0.77 | 1.2 | 0.7 | 1.0 | 0.67 | 1 | 0.6 | 0.9 | 1.5 fold | 0.8 | 0.59 | 0.9 fold | 0.79 | 1.2 | 1.9 fold |  |
| COc1cc2c(cc1Cc1cccc(Cl)c1F)c(=O)c(C(=O)O)cn2[C@H](CO)C(C)C [EVG, elvitegravir] | 1.45 | 1.2 | 4.53 | 3.7 | > 807 fold | 1.15 | 0.9 | 1.59 | 1.3 | 1.24 | 1 | 1.17 | 0.9 | > 807 fold | 7.8 | > 1000 | > 807 fold | 1.55 | 1.3 | > 807 fold | fold reduced susceptibility of HIV with G140S/A/C [13]: 10-100 fold |
| Cc1nnc(C(=O)NC(C)(C)c2nc(C(=O)NCc3ccc(F)cc3)c(O)c(=O)n2C)o1 [RAL, raltegravir] | 4 | 1.4 | 8.07 | 2.8 | > 345 fold | 4.13 | 1.4 | 4.6 | 1.6 | 2.9 | 1 | 2.73 | 0.9 | > 345 fold | 3.6 | > 1000 | > 345 fold | 3.8 | 1.3 | > 345 fold | fold reduced susceptibility of HIV with G140S/A/C [13]: 10-100 fold |
